Experimental data reported in US12060355B2, “Compounds for use in the treatment of fascioliasis” (Merck Patent GmbH, priority 2018, dated 2024).
Like-named read-outs stand apart in the source and are kept apart here.

What was measured:
F. hepatica adult fluke = F. hepatica adult fluke motility score, in vitro; type: cell-based, Fasciola hepatica; parameters: key: Good movement Score 1 • (Curled, sticking on wall, movement on petri plate or conical flask); Moderate movement Score 2 • (Less vigor but more than 10 seconds pulses or peristaltic waves); Resting Score 3 • (Less than 10 second pulses in head and body); Apathetic Score 4 • (Head and body with less than 2 second pulses); Faint movement of suckers Score 5 • (Movement of oral or ventral suckers only, whole body paralyzed); Inert Score 6 • (No movement at all or dead); conditions: for F. hepatica motility score after 24 h / F. hepatica motility score after 48 h / F. hepatica motility score after 72 h: adult fluke; for F. hepatica motility score after 24 h: score 1 (good movement) to 6 (inert); for F. hepatica motility score after 48 h / F. hepatica motility score after 72 h: score 1 to 6 (inert)
From the text: The routine biological assays using adult liver fluke are described in Alessandra Crusco, Cinzia Bordoni, Anand Chakroborty, Kezia C. L. Whatley, Helen Whiteland, Andrew D. Westwell, Karl F. Hoffmann, “Design, synthesis and anthelmintic activity of 7-keto-sempervirol analogues”, European Journal of Medicinal Chemistry, Volume 152, 2018, Pages 87-100.
The routine biological assays using adult or juvenile S. mansoni worms and cytotoxicity assays using MRC-5 cells have been disclosed previously in Mansour, N. R., et al. (2016). “High Throughput Screening Identifies Novel Lead Compounds with Activity against Larval, Juvenile and Schistosoma mansoni PLoS Negl Trop Dis 10(4): e0004659. […] Motility is scored as per the table below: • Good movement Score 1 • (Curled, sticking on wall, movement on petri plate or conical flask) • Moderate movement Score 2 • (Less vigor but more than 10 seconds pulses or peristaltic waves) • Resting Score 3 • (Less than 10 second pulses in head and body) • Apathetic Score 4 • (Head and body with less than 2 second pulses) • Faint movement of suckers Score 5 • (Movement of oral or ventral suckers only, whole body paralyzed) • Inert Score 6 • (No movement at all or dead) • (b) S. mansoni adult worms • (c) S. mansoni juvenile worms • (d) S. haemotobium adult worms • (e) Cytotoxicity against human MRC-5 cell line • (f) Cytotoxicity against human HepG2 cell lines

S. mansoni adult worms = experiment: S. mansoni adult worm assay, in vitro; type: cell-based; conditions: Schistosoma mansoni, read-out: S. mansoni Adult
Description: (§1) The routine biological assays using adult or juvenile S. mansoni worms and cytotoxicity assays using MRC-5 cells have been disclosed previously in Mansour, N. R., et al. (2016). “High Throughput Screening Identifies Novel Lead Compounds with Activity against Larval, Juvenile and Schistosoma mansoni PLoS Negl Trop Dis 10(4): e0004659. Cytotoxicity assays using the HepG2 cell line were carried out as described in Molecular Diversity (2015) 19, 251-261. • (a) F. hepatica adult fluke motility score tested at 5 μM. Motility is scored as per the table below: • Good movement Score 1 • (Curled, sticking on wall, movement on petri plate or conical flask) • Moderate movement Score 2 • (Less vigor but more than 10 seconds pulses or peristaltic waves) • Resting Score 3 • (Less than 10 second pulses in head and body) • Apathetic Score 4 • (Head and body with less than 2 second pulses) • Faint movement of suckers Score 5 • (Movement of oral or ventral suckers only, whole body paralyzed) • Inert Score 6 • (No movement at all or dead) • (b) S. mansoni adult worms • (c) S. mansoni juvenile worms • (d) S. haemotobium adult worms • (e) Cytotoxicity against human MRC-5 cell line • (f) Cytotoxicity against human HepG2 cell lines

[1] = tested on: S. mansoni juvenile worms; experiment: S. mansoni juvenile worm assay, in vitro; type: cell-based; conditions: Schistosoma mansoni, read-out: S. mansoni Juvenile
Description: as §1

human HepG2 cell lines = type: cell-based; conditions: human HepG2 cell line
human MRC-5 cell line = experiment: Cytotoxicity against human MRC-5 cell line; type: cell-based
Description: as §1

juvenile worms = experiment: In vivo mouse model infected with juvenile worms, worm recovery; parameters: species or system S. mansoni; conditions: Schistosoma mansoni, 360 h, mice, juvenile infection, Formulation F1, read-out: Percent worm reduction
Description: Methods for the subcutaneous infection of mice and subsequent worm recovery were as described in Mansour et al (2016) except that infection was with 150 cercariae and the perfusion medium was citrate saline (0.9% sodium chloride, 1.5% tri-sodium citrate). Perfusion was carried out 8 days (adult infections) or 15 days (juvenile infections) after treatment. Perfuseate was collected into 30 mL universal tubes. RBC (Red Blood Cells) were removed by allowing the perfuseate to settle for 10 min, removal of most of the supernatant and washing once as above with 10 mL perfusion medium. A drop of dilute aqueous saponin solution was added to lyse any remaining RBC and the worm suspension poured into a grid-marked small petri dish. The tube was rinsed out into the petri dish and examined for any remaining worms. Worms were counted using a dissecting microscope. The mouse livers removed after perfusion were squashed between two thick glass plates and examined visually and any remaining worms added to those counted as above.
For testing efficacy against the juvenile worms, treatment was on day 25 post infection and for testing against the adult worms on day 42 post infection. Drugs were suspended in 7% Tween-80/3% Ethanol/double distilled water and drug dispersal was facilitated by vortexing and using a sonicating water bath (Formulation F1). […]

CC(C)c1nn2ccc(-c3ccc(F)c(C(F)(F)F)c3)cc2c1-c1ccc2[nH]ncc2c1F [Example 55, 4-Fluoro-5-[5-(4-fluoro-3-trifluoromethyl-phenyl)-2-isopropylpyrazolo[1,5-a]pyridin-3-yl]-1H-indazole]
F. hepatica motility score after 24 h (F. hepatica adult fluke; 5 μM): (6, 6, 6) at 5 μM
F. hepatica motility score after 48 h (F. hepatica adult fluke; 5 μM): (6, 6, 6) at 5 μM
F. hepatica motility score after 72 h (F. hepatica adult fluke; 5 μM): (6, 6, 6) at 5 μM
IC50 (S. mansoni adult worms; adult worms in vitro): 28 nM
IC50 ([1]; juvenile worms in vitro, IC50): 22 nM
Cytotox HepG2 (human HepG2 cell lines): 11.1 µM

CCc1nc2cnc(-c3cccc(C(F)(F)F)c3)cn2c1-c1ccc(O)cc1F [Example 8, 3-fluoro-4-[2-ethyl-6-[3-(trifluoromethyl)phenyl]imidazo[1,2-a]pyrazin-3-yl]phenol]
Cytotox MRC-5 (human MRC-5 cell line): 17.3 µM
Cytotox HepG2 (human HepG2 cell lines): 18.7 µM

CC(C)c1nc2cnc(-c3ccc(F)c(C(F)(F)F)c3)cn2c1-c1c(F)cc(O)cc1F [Example 17, 3,5-difluoro-4-[2-(propan-2-yl)-6-[4-fluoro-3-(trifluoromethyl)phenyl]imidazo[1,2-a]pyrazin-3-yl]phenol]
Mean motility score of F hepatica at 24 h (F. hepatica adult fluke; 0.04 μM): 1, 1, 1
Mean motility score of F hepatica at 48 h (F. hepatica adult fluke; 0.04 μM): 1, 1, 1
Mean motility score of F hepatica at 72 h (F. hepatica adult fluke; 0.04 μM): 1, 1, 1
Mean motility score of F hepatica at 24 h (F. hepatica adult fluke; 0.2 μM): 3
Mean motility score of F hepatica at 48 h (F. hepatica adult fluke; 0.2 μM): 3
Mean motility score of F hepatica at 72 h (F. hepatica adult fluke; 0.2 μM): 6
Mean motility score of F hepatica at 24 h (F. hepatica adult fluke; 1 μM): 6, 6, 6
Mean motility score of F hepatica at 48 h (F. hepatica adult fluke; 1 μM): 6, 6, 6
Mean motility score of F hepatica at 72 h (F. hepatica adult fluke; 1 μM): 6, 6, 6
Mean motility score of F hepatica at 24 h (F. hepatica adult fluke; 5 μM): 6, 6, 6
Mean motility score of F hepatica at 48 h (F. hepatica adult fluke; 5 μM): 6, 6, 6
Mean motility score of F hepatica at 72 h (F. hepatica adult fluke; 5 μM): 6, 6, 6
F. hepatica motility score after 24 h (F. hepatica adult fluke; 5 μM): (6, 6, 6) at 5 μM
F. hepatica motility score after 48 h (F. hepatica adult fluke; 5 μM): (6, 6, 6) at 5 μM
F. hepatica motility score after 72 h (F. hepatica adult fluke; 5 μM): (6, 6, 6) at 5 μM
Cytotox HepG2 (human HepG2 cell lines): 7.1 µM
inhibition in vivo at 50 mg/kg (juvenile worms; oral 50 mg/kg): 38%
inhibition in vivo at 200 mg/kg (juvenile worms; oral 200 mg/kg): 84%

CC(C)c1nc2cnc(-c3cccc(C(F)(F)F)c3)cn2c1-c1ccc(OP(=O)(O)O)cc1F [Example 3, 3-fluoro-4-[2-(propan-2-yl)-6-[3-(trifluoromethyl)phenyl]imidazo[1,2-a]pyrazin-3-yl]phenoxyphosphonic acid]
IC50 (S. mansoni adult worms): < 49 nM
IC50 [1]: 130 nM
Cytotox HepG2 (human HepG2 cell lines): 9.2 µM

COc1ccc(-c2c(C(C)C)nc3cnc(-c4cccc(C(F)(F)F)c4)cn23)cc1O [Example 1, 2-methoxy-5-[2-(propan-2-yl)-6-[3-(trifluoromethyl)phenyl]imidazo[1,2-a]pyrazin-3-yl]phenol]
Cytotox MRC-5 (human MRC-5 cell line): 21.8 µM
Cytotox HepG2 (human HepG2 cell lines): >11.1 µM

CC(C)c1nc2cnc(-c3ccc(F)c(C(F)(F)F)c3)cn2c1-c1c(F)cc(OP(=O)(O)O)cc1F [Example 40, 3,5-difluoro-4-{6-[4-fluoro-3-(trifluoromethyl)phenyl]-2-(propan-2-yl)imidazo[1,2-a]pyrazin-3-yl}phenoxyphosphonic acid]
IC50 (S. mansoni adult worms): 27 nM
IC50 [1]: 25 nM
Cytotox HepG2 (human HepG2 cell lines): 6.5 µM

CCc1nc2cnc(-c3cccc(C(F)(F)F)c3)cn2c1-c1ccc(OC)c(O)c1 [Example 7, 2-methoxy-5-[2-ethyl-6-[3-(trifluoromethyl)phenyl]imidazo[1,2-a]pyrazin-3-yl]phenol]
Cytotox MRC-5 (human MRC-5 cell line): >50 µM
Cytotox HepG2 (human HepG2 cell lines): >30 µM

Cc1nc2cnc(-c3ccc(F)c(C(F)(F)F)c3)cn2c1-c1ccc(O)cc1F [Example 10, 3-fluoro-4-[2-methyl-6-[4-fluoro-3-(trifluoromethyl)phenyl]imidazo[1,2-a]pyrazin-3-yl]phenol]
Cytotox MRC-5 (human MRC-5 cell line): 14.4 µM
Cytotox HepG2 (human HepG2 cell lines): >11.1 µM

CC(C)c1nc2cnc(-c3cccc(C(F)(F)F)c3)cn2c1-c1ccc(O)cc1F [Example 9, 3-fluoro-4-[2-(propan-2-yl)-6-[3-(trifluoromethyl)phenyl]imidazo[1,2-a]pyrazin-3-yl]phenol]
Cytotox MRC-5 (human MRC-5 cell line): 13.7 µM
Cytotox HepG2 (human HepG2 cell lines): 9 µM
